Experimental data from patent US10308686B2, “Gamma-AApeptides with potent and broad-spectrum antimicrobial activity” (priority 2012, dated 2019).
Converted amounts (≈) assume the structure as drawn. Like-named read-outs stand apart in the source and are kept apart here.

Experiments:
[1] = tested on: multi-drug resistant P. aeruginosa ATCC 27853
[2] = tested on: methicillin-resistant S. aureus (ATCC 33592)
[3] = tested on: human red blood cells (hRBC's); assay: Hemolysis assay; assay type: cell-based
Description: Freshly drawn human red blood cells (hRBC's) with additive K2 EDTA (spray-dried) were washed with PBS buffer several times and centrifuged at 1000 g for 10 min until a clear supernatant was observed. The hRBC's were resuspended in 1×PBS to get a 5% v/v suspension. Two-fold serial dilutions of γ-AApeptides dissolved in 1×PBS from 250 μg/ml through 1.6 μg/ml were added to a sterile 96-well plate to make up a total volume of 50 μL in each well. Then 50 μL of 5% v/v hRBC solution was added to make up a total volume of 100 μL in each well. The 0% hemolysis point and 100% hemolysis point were determined in 1×PBS and 0.2% Triton-X-100, respectively (Patch et al., 2003). The plate was then incubated at 37° C. for 1 h and centrifuged at 3500 rpm for 10 min. The supernatant (30 μL) was diluted with 100 μL of 1×PBS and absorption was detected by measuring the optical density at 360 nm by Biotek Synergy HT microtiter plate reader. % hemolysis was determined by the following equation: % hemolysis=(Abssample−AbsPBS)/(AbsTriton−AbsPBS)×100 H50 is the concentration of γ-AApeptide amphiphiles at which 50% hemolysis was observed. The highest concentration tested in the hemolytic assay was 500 μg/ml. 7. Fluorescence Microscopy
The sequences shown in FIG. 12 were also evaluated via hemolytic assays. Freshly drawn human red blood cells (hRBC's) with additive K2 EDTA (spray-dried) were washed with PBS buffer several times and centrifuged at 1000 g for 10 min until a clear supernatant was observed. The hRBC's were resuspended in 1×PBS to get a 5% v/v suspension. Two-fold serial dilutions of lipidated γ-AApeptides dissolved in 1×PBS from 1 mg/ml through 6.3 μg/ml were added to sterile 96-well plates to make up a total volume of 50 μL in each well. Then 50 μL of 5% v/v hRBC solution was added to make up a total volume of 100 μL in each well. The 0% hemolysis point and 100% hemolysis point were determined in 1×PBS and 0.2% Triton-X-100, respectively (Patch et al., 2003). The plate was then incubated at 37° C. for 1 h and centrifuged at 3500 rpm for 10 min. The supernatant (30 μL) was diluted with 100 μL of 1×PBS and absorption was detected by measuring the optical density at 360 nm with a Biotek Synergy HT microtiter plate reader. % hemolysis was determined by the following equation: % hemolysis=(Abs sample−Abs PBS)/(Abs Triton−Abs PBS)×100

[4] = tested on: vancomycin-resistant E. faecalis (ATCC 700802)
[5] = tested on: multi-drug resistant S. epidermidis (RP62A)
[6] = tested on: K. pneumoniae (ATCC 13383)
[7] = Table 5, first value of H10/H50
[8] = Table 5, second value of H10/H50

CCCCCCCCCCCCCCCC(=O)N[C@@H](C)CN(CC(=O)N[C@@H](C)CN(CC(=O)N[C@@H](CCCCN)CN(CC(=O)N[C@@H](CCCCN)CN(CC(=O)N[C@@H](CCCCN)CN(CC(N)=O)C(=O)CCCN)C(=O)CCCN)C(=O)CCCN)C(C)=O)C(C)=O [Sequence 5]
MIC, Gram negative P. aeruginosa ([1]; ATCC 27853): 15 µg/mL (≈ 11.2 µM)
MIC, Gram negative E. coli (E. coli (JM109)): 2.5 µg/mL (≈ 1.87 µM)
MIC, Gram positive S. aureus ([2]; Table 7): 10 µg/mL (≈ 7.48 µM)
Hemolysis HC10 ([3]; red cells of human): 200 µg/mL
Hemolysis HC50 ([3]; red cells of human): > 500 µg/mL
MIC, Gram positive E. faecalis ([4]; Table 7): 10 µg/mL (≈ 7.48 µM)
MIC, Gram positive S. epidermidis ([5]; Table 7): 10 µg/mL (≈ 7.48 µM)
MIC, Gram positive B. subtilis (B. subtilis (BR151)): 2.5 µg/mL (≈ 1.87 µM)
MIC, Gram negative K. pneumoniae [6]: 15 µg/mL (≈ 11.2 µM)
MIC, Fungi, C. albicans (C. albicans (ATCC 10231); ATCC 10231): 7.5 µg/mL (≈ 5.61 µM)

CC(C)CCC(=O)N1CC(=O)N[C@@H](CCCCN)CN(C(=O)CCc2ccccc2)CC(=O)N[C@@H](CCCCN)CN(C(=O)CCc2ccccc2)CC(=O)N[C@@H](Cc2ccccc2)CN(CC(N)=O)C(=O)CCC(=O)N[C@@H](CCCCN)CN(C(=O)CCc2ccccc2)CC(=O)N[C@@H](CCCCN)CN(C(=O)CCc2ccccc2)CC(=O)N[C@@H](CCCCN)CN(C(=O)CCc2ccccc2)CC(=O)N[C@@H](Cc2ccccc2)C1 [HW-B-11]
MIC, P. aeruginosa ([1]; Table 5): 10 µg/mL (≈ 4.77 µM)
MIC, S. aureus (MRSA) ([2]; ATCC 33592): 5 µg/mL (≈ 2.39 µM)
Hemolysis H10 [3, 7]: 200 µg/mL
Hemolysis H50 [3, 8]: > 500 µg/mL
MIC, E. faecalis (VREF) ([4]; ATCC 700802): 15 µg/mL (≈ 7.16 µM)
MIC, S. epidermidis (MRSE) ([5]; multi-drug resistant (RP62A)): 2 µg/mL (≈ 0.955 µM)
MIC, K. pneumoniae [6]: 20 µg/mL (≈ 9.55 µM)
MIC, Fungus C. albicans (C. albicans (ATCC 10231); Table 5): 5 µg/mL (≈ 2.39 µM)

CC(C)CCC(=O)N1CC(=O)N[C@@H](CCCCN)CN(C(=O)CCc2ccccc2)CC(=O)N[C@@H](CCCCN)CN(C(=O)CCc2ccccc2)CC(=O)N[C@@H](Cc2ccccc2)CN(CC(N)=O)C(=O)CCC(=O)N[C@@H](CCCCN)CN(C(=O)CCc2ccccc2)CC(=O)N[C@@H](CCCCN)CN(C(=O)CCc2ccccc2)CC(=O)N[C@@H](CCCCN)CN(C(=O)CCc2ccccc2)CC(=O)N[C@@H](Cc2ccccc2)C1 [γAA4]
MIC, E. coli (E. coli (JM109)): 3.1 to 6.3 µg/mL
MIC, S. aureus (methicillin-resistant) ([2]; ATCC 33592): 3.1 to 6.3 µg/mL
Hemolysis (H50) ([3]; Table 3): >500 µg/mL
MIC, E. faecalis (vancomycin-resistant) ([4]; ATCC 700802): 12.5 to 25 µg/mL
MIC, S. epidermidis (multi-drug resistant) ([5]; multi-drug resistant (RP62A)): 2 µg/mL (≈ 0.955 µM)
MIC, B. subtilis (B. subtilis (BR151)): 2 µg/mL (≈ 0.955 µM)
MIC, K. pneumoniae (causing pneumonia) [6]: >100 µg/mL
MIC, Fungi C. albicans (C. albicans (ATCC 10231); ATCC 10231): 3 to 6 µg/mL

CC(C)CCC(=O)N1CC(=O)N[C@@H](Cc2ccccc2)CN(C(=O)CCC(C)C)CC(=O)N[C@@H](CCCCN)CN(C(=O)CCc2ccccc2)CC(=O)N[C@@H](CCCCN)CN(C(=O)CCc2ccccc2)CC(=O)N[C@@H](CCCCN)CN(C(=O)CCc2ccccc2)CC(=O)N[C@@H](CCCCN)CN(C(=O)CCc2ccccc2)CC(=O)N[C@@H](Cc2ccccc2)CN(CC(N)=O)C(=O)CCC(=O)N[C@@H](Cc2ccccc2)C1 [HW-B-13]
MIC, S. aureus (MRSA) ([2]; Table 5): 1
Hemolysis H10 [3]: 40 µg/mL
Hemolysis H50 [3]: 100 µg/mL
MIC, E. faecalis (VREF) ([4]; Table 5): 5 µg/mL (≈ 2.4 µM)
MIC, S. epidermidis (MRSE) ([5]; Table 5): 2 µg/mL (≈ 0.962 µM)
MIC, K. pneumoniae [6]: 8 µg/mL (≈ 3.85 µM)
MIC, Fungus C. albicans (C. albicans (ATCC 10231); ATCC 10231): 2 µg/mL (≈ 0.962 µM)

CC(C)CCC(=O)N1CC(=O)N[C@@H](Cc2ccccc2)CN(C(=O)CCC(C)C)CC(=O)N[C@@H](Cc2ccccc2)CN(C(=O)CCC(C)C)CC(=O)N[C@@H](CCCCN)CN(C(=O)CCc2ccccc2)CC(=O)N[C@@H](CCCCN)CN(C(=O)CCc2ccccc2)CC(=O)N[C@@H](CCCCN)CN(C(=O)CCc2ccccc2)CC(=O)N[C@@H](Cc2ccccc2)CN(CC(N)=O)C(=O)CCC(=O)N[C@@H](Cc2ccccc2)C1 [HW-B-14]
MIC, S. aureus (MRSA) ([2]; ATCC 33592): 3 µg/mL (≈ 1.45 µM)
Hemolysis H10 [3, 7]: 45 µg/mL
Hemolysis H50 [3, 8]: 300 µg/mL
MIC, E. faecalis (VREF) ([4]; ATCC 700802): 5 µg/mL (≈ 2.42 µM)
MIC, S. epidermidis (MRSE) ([5]; multi-drug resistant (RP62A)): 2 µg/mL (≈ 0.969 µM)
MIC, K. pneumoniae [6]: 10 µg/mL (≈ 4.84 µM)
MIC, Fungus C. albicans (C. albicans (ATCC 10231); ATCC 10231): 4 µg/mL (≈ 1.94 µM)

NCCCC[C@H](N)CN(CC(=O)N[C@@H](CCCCN)CN(CC(=O)N[C@@H](CCCCN)CN(CC(=O)N[C@@H](CCCCN)CN(CC(=O)N[C@@H](CCCCN)CN(CC(N)=O)C(=O)CCc1ccccc1)C(=O)CCc1ccccc1)C(=O)CCc1ccccc1)C(=O)CCc1ccccc1)C(=O)CCc1ccccc1 [γ2]
MIC, E. coli (E. coli (JM109)): 25 µg/mL (≈ 16.3 µM)
MIC, S. aureus (methicillin-resistant) ([2]; Table 1): >100 µg/mL
MIC, E. faecalis (vancomycin-resistant) ([4]; Table 1): >100 µg/mL
MIC, S. epidermidis (multi-drug resistant) ([5]; Table 1): >100 µg/mL
MIC, B. subtilis (B. subtilis (BR151)): 5 µg/mL (≈ 3.26 µM)
MIC, K. pneumoniae (causing pneumonia) [6]: >100 µg/mL
